Laboratory results reported in patent publication US12018059B2, “Human amylin analog polypeptides and methods of use” (Intarcia Therapeutics, Inc., priority 2018, dated 2024).
Starred links: 1 amine or outer side, 2 acyl side, 3 side chain; linkers in the order of their positions; H or OH if unused. Positions of bridges follow the written chain, without caps; N, C: chain ends. Residues, ends and D or L forms follow the SMILES beside them. Groups on a side chain read outwards from the residue. *: point of attachment. X2 = O=C(O)CCCCCCCCCCCCCCCCC(=O)N[C@@H](CCC(=O)NCOCCOCC(=O)NCOCCOCC(=O)*)C(=O)O; C18 diacid = O=C(O)CCCCCCCCCCCCCCCCC(=O)*; C16 diacid = O=C(O)CCCCCCCCCCCCCCC(=O)*; γGlu = O=C(O)[C@H](CCC(=O)[*:2])N[*:1]; C12 diacid = O=C(O)CCCCCCCCCCC(=O)*; Palmitoyl = CCCCCCCCCCCCCCCC(=O)*

test: in vivo; set-up: species or system Sprague-Dawley rats; settings: rat, iv, 0.033 mg/kg
Method in brief: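 Male Sprague-Dawley rats, non-fasted (n=3), given peptide in saline as 1-h IV or SC infusion at 0.033 mg/kg, or SC bolus at 0.3 mg/kg; jugular blood to 48 h into K2EDTA plus protease inhibitors. Plasma extracted by precipitation or WCX solid-phase extraction, quantified by UPLC-MS/MS against standards in matching rat plasma.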

Compound | Vd | clearance | half-life
CC[C@H](C)[C@H](NC(=O)[C@@H]1CCCN1C(=O)CNC(=O)[C@H](Cc1ccccc1)NC(=O)[C@H](CC(N)=O)NC(=O)[C@H](CC(N)=O)NC(=O)[C@H](CO)NC(=O)[C@H](CO)NC(=O)[C@H](CCCCN)NC(=O)[C@H](CCCCNC(=O)COCCOCNC(=O)COCCOCNC(=O)CC[C@H](NC(=O)CCCCCCCCCCCCCCCCC(=O)O)C(=O)O)NC(=O)[C@H](CC(C)C)NC(=O)[C@H](CCC(=O)O)NC(=O)[C@H](CC(N)=O)NC(=O)[C@H](C)NC(=O)[C@H](CC(C)C)NC(=O)[C@H](CCCNC(=N)N)NC(=O)[C@H](CCC(N)=O)NC(=O)[C@@H](NC(=O)[C@H](C)NC(=O)[C@@H]1CSSC[C@H](NC(=O)[C@@H](N)CO)C(=O)N[C@@H](CC(N)=O)C(=O)N[C@@H]([C@@H](C)O)C(=O)N[C@@H](CO)C(=O)N[C@@H]([C@@H](C)O)C(=O)N1)[C@@H](C)O)C(=O)N[C@@H](CC(C)C)C(=O)N1CCC[C@H]1C(=O)N1CCC[C@H]1C(=O)N[C@H](C(=O)N[C@@H](CCCCN)C(=O)N[C@H](C(=O)NCC(=O)N[C@@H](CO)C(=O)N[C@@H](CCC(=O)O)C(=O)N[C@H](C(=O)N[C@@H](Cc1ccc(O)cc1)C(N)=O)[C@@H](C)O)C(C)C)[C@@H](C)O [Compound A99] (H-SCNTSTCATQRLANELK(X2)KSSNNFGPILPPTKVGSETY-NH2; disulfide 2-7; N-terminus assumed) | 0.128 L/kg | 0.00569 L/h/kg | 19.5 h
CC[C@H](C)[C@H](NC(=O)[C@@H]1CCCN1C(=O)CNC(=O)[C@H](Cc1ccccc1)NC(=O)[C@H](CC(N)=O)NC(=O)[C@H](CC(N)=O)NC(=O)[C@H](CO)NC(=O)[C@H](CO)NC(=O)[C@H](CCCCN)NC(=O)[C@H](Cc1c[nH]cn1)NC(=O)[C@H](CC(C)C)NC(=O)[C@H](CCCCNC(=O)CC[C@H](NC(=O)CC[C@H](NC(=O)CCCCCCCCCCCCCCC(=O)O)C(=O)O)C(=O)O)NC(=O)[C@H](CC(N)=O)NC(=O)[C@H](C)NC(=O)[C@H](CC(C)C)NC(=O)[C@H](CCCNC(=N)N)NC(=O)[C@H](CCC(N)=O)NC(=O)[C@@H](NC(=O)[C@H](C)NC(=O)[C@@H]1CSSC[C@H](NC(=O)[C@@H](N)CO)C(=O)N[C@@H](CC(N)=O)C(=O)N[C@@H]([C@@H](C)O)C(=O)N[C@@H](CO)C(=O)N[C@@H]([C@@H](C)O)C(=O)N1)[C@@H](C)O)C(=O)N[C@@H](CC(C)C)C(=O)N1CCC[C@H]1C(=O)N1CCC[C@H]1C(=O)N[C@H](C(=O)N[C@@H](CCCCN)C(=O)N[C@H](C(=O)NCC(=O)N[C@@H](CO)C(=O)N[C@@H](CCC(=O)O)C(=O)N[C@H](C(=O)N[C@@H](Cc1ccc(O)cc1)C(N)=O)[C@@H](C)O)C(C)C)[C@@H](C)O [Compound A82] (H-SCNTSTCATQRLANK([γGlu-γGlu-C16 diacid])LHKSSNNFGPILPPTKVGSETY-NH2; disulfide 2-7) | 0.152 L/kg | 0.04 L/h/kg | 3.17 h
CCCCCCCCCCCCCCCC(=O)N[C@@H](CCC(=O)N[C@@H](CCC(=O)NCCCC[C@H](NC(=O)[C@H](CCC(=O)O)NC(=O)[C@H](CC(N)=O)NC(=O)[C@H](C)NC(=O)[C@H](CC(C)C)NC(=O)[C@H](CCCNC(=N)N)NC(=O)[C@H](CCC(N)=O)NC(=O)[C@@H](NC(=O)[C@H](C)NC(=O)[C@@H]1CSSC[C@H](NC(=O)[C@@H](N)CO)C(=O)N[C@@H](CC(N)=O)C(=O)N[C@@H]([C@@H](C)O)C(=O)N[C@@H](CO)C(=O)N[C@@H]([C@@H](C)O)C(=O)N1)[C@@H](C)O)C(=O)N[C@@H](Cc1c[nH]cn1)C(=O)N[C@@H](CCCCN)C(=O)N[C@@H](CO)C(=O)N[C@@H](CO)C(=O)N[C@@H](CC(N)=O)C(=O)N[C@@H](CC(N)=O)C(=O)N[C@@H](Cc1ccccc1)C(=O)NCC(=O)N1CCC[C@H]1C(=O)N[C@H](C(=O)N[C@@H](CC(C)C)C(=O)N1CCC[C@H]1C(=O)N1CCC[C@H]1C(=O)N[C@H](C(=O)N[C@@H](CCCCN)C(=O)N[C@H](C(=O)NCC(=O)N[C@@H](CO)C(=O)N[C@@H](CCC(=O)O)C(=O)N[C@H](C(=O)N[C@@H](Cc1ccc(O)cc1)C(N)=O)[C@@H](C)O)C(C)C)[C@@H](C)O)[C@@H](C)CC)C(=O)O)C(=O)O [Compound A123] (H-SCNTSTCATQRLANEK([γGlu-γGlu-Palmitoyl])HKSSNNFGPILPPTKVGSETY-NH2; disulfide 2-7) | 0.146 L/kg | 0.0348 L/h/kg | 3.2 h
CC[C@H](C)[C@H](NC(=O)[C@@H]1CCCN1C(=O)CNC(=O)[C@H](Cc1ccccc1)NC(=O)[C@H](CC(N)=O)NC(=O)[C@H](CC(N)=O)NC(=O)[C@H](CO)NC(=O)[C@H](CO)NC(=O)[C@H](CCCCN)NC(=O)[C@H](Cc1c[nH]cn1)NC(=O)[C@H](CCCCNC(=O)CCCCCCCCCCC(=O)O)NC(=O)[C@H](CCC(=O)O)NC(=O)[C@H](CC(N)=O)NC(=O)[C@H](C)NC(=O)[C@H](CC(C)C)NC(=O)[C@H](CCCNC(=N)N)NC(=O)[C@H](CCC(N)=O)NC(=O)[C@@H](NC(=O)[C@H](C)NC(=O)[C@@H]1CSSC[C@H](NC(=O)[C@@H](N)CO)C(=O)N[C@@H](CC(N)=O)C(=O)N[C@@H]([C@@H](C)O)C(=O)N[C@@H](CO)C(=O)N[C@@H]([C@@H](C)O)C(=O)N1)[C@@H](C)O)C(=O)N[C@@H](CC(C)C)C(=O)N1CCC[C@H]1C(=O)N1CCC[C@H]1C(=O)N[C@H](C(=O)N[C@@H](CCCCN)C(=O)N[C@H](C(=O)NCC(=O)N[C@@H](CO)C(=O)N[C@@H](CCC(=O)O)C(=O)N[C@H](C(=O)N[C@@H](Cc1ccc(O)cc1)C(N)=O)[C@@H](C)O)C(C)C)[C@@H](C)O [Compound A74] (H-SCNTSTCATQRLANEK(C12 diacid)HKSSNNFGPILPPTKVGSETY-NH2; disulfide 2-7) | 0.331 L/kg | 0.732 L/h/kg | 0.331 h
CC[C@H](C)[C@H](NC(=O)[C@@H]1CCCN1C(=O)CNC(=O)[C@H](Cc1ccccc1)NC(=O)[C@H](CC(N)=O)NC(=O)[C@H](CC(N)=O)NC(=O)[C@H](CO)NC(=O)[C@H](CO)NC(=O)[C@H](CCCCN)NC(=O)[C@H](Cc1c[nH]cn1)NC(=O)[C@H](CC(C)C)NC(=O)[C@H](CCCCNC(=O)CCCCCCCCCCCCCCCCC(=O)O)NC(=O)[C@H](CC(N)=O)NC(=O)[C@H](C)NC(=O)[C@H](CC(C)C)NC(=O)[C@H](CCCNC(=N)N)NC(=O)[C@H](CCC(N)=O)NC(=O)[C@@H](NC(=O)[C@H](C)NC(=O)[C@@H]1CSSC[C@H](NC(=O)[C@@H](N)CO)C(=O)N[C@@H](CC(N)=O)C(=O)N[C@@H]([C@@H](C)O)C(=O)N[C@@H](CO)C(=O)N[C@@H]([C@@H](C)O)C(=O)N1)[C@@H](C)O)C(=O)N[C@@H](CC(C)C)C(=O)N1CCC[C@H]1C(=O)N1CCC[C@H]1C(=O)N[C@H](C(=O)N[C@@H](CCCCN)C(=O)N[C@H](C(=O)NCC(=O)N[C@@H](CO)C(=O)N[C@@H](CCC(=O)O)C(=O)N[C@H](C(=O)N[C@@H](Cc1ccc(O)cc1)C(N)=O)[C@@H](C)O)C(C)C)[C@@H](C)O [Compound A83] (H-SCNTSTCATQRLANK(C18 diacid)LHKSSNNFGPILPPTKVGSETY-NH2; disulfide 2-7) | 0.123 L/kg | 0.0299 L/h/kg | 4.06 h
